Results taken from patent publication US11077115B2, “Rorgamma modulators and uses thereof” (Genfit, priority 2017, dated 2021).

How the values were obtained:
human RORγt [1] = target: T1, human RORγt (Homo sapiens, UniProt P51449); assay: IL-17 secretion from EL4 murine lymphoma overexpressing human RORγt; format: cell-based; set-up: V5-His (named only through the vector pcDNA3.1D/V5-His-TOPO); expressed in transfected cells; settings: IL-17 secretion inhibition in human RORγt-transfected EL4 Tcells, PMA/ionomycin stimulation
T1 sequence (P51449 1-497 isoform P51449-2): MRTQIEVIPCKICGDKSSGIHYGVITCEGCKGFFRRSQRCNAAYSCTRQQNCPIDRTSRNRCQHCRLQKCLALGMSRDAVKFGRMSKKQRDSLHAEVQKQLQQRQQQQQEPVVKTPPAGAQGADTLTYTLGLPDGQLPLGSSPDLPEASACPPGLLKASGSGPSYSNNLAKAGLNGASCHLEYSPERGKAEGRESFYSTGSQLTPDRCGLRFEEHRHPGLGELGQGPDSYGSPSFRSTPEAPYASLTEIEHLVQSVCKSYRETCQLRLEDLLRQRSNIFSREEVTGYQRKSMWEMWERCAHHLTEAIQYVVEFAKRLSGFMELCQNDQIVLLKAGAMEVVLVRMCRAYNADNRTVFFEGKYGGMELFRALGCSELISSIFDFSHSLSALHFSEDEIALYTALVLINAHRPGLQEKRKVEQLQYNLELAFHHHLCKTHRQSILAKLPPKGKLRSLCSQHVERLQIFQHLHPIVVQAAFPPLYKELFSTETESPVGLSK
Method: Murine EL-4 lymphoma cell line overexpressing human RORγt was used in this functional assay to assess compound ability to inhibit IL-17 cytokine secretion.
EL-4 cells are maintained in a standard culture medium RPMI supplemented with 10% fetal calf serum, 1% sodium pyruvate, 1% essential amino acids and 1% antibiotics at 37° C. in a humidified atmosphere of 5% CO2 and 95% air. Culture medium was changed every 2 days. EL4 cells were transfected with a plasmid encoding hRORγt (sequence identical to published sequence NM 001001523). […] Briefly, 1 μg of DNA/1 million cells was served to transfect EL-4 cells. Cell/DNA suspension was transferred into certified cuvette and the electroporation of RORγt plasmid was carried out using appropriate Nucleofector® program.
Cells were seeded in 96 well plates at a density of 150000 cells/well then treated with compounds of this invention at indicated concentrations and incubated for 24 hours at 37° C. in a humidified atmosphere of 5% CO2 and 95% air. EL-4 cells were pretreated with test compounds (RORγ modulators) and stimulated with PMA (10 ng/mL) and ionomycin (1 μM final concentration) in the presence of test compound concentrations for additional 24 h at 37° C. in a humidified atmosphere of 5% CO2 and 95% air. Subsequently, supernatants were collected (after centrifugation at 300 g for 10 minutes) to determine the concentrations of IL-17 by HTRF (CisBio, France) or ELISA (R&D Systems Europe) according to the manufacturer's protocols.

human RORγt [2] = target: T1, human RORγt; assay: RORE Luciferase/RORγt transactivation assay (IL-17 promoter luciferase reporter in COS-7 cells); format: cell-based; set-up: V5-His (named only through the vector pcDNA3.1D/V5-His-TOPO); expressed in transfected cells; host or cells: COS-7 (monkey kidney); settings: RORγt activity inhibition, luciferase activity in transfected COS-7 cells, 20 h
Method: It is well known that RORγ binds to a conserved non-coding sequence (CNS) enhancer element in the IL-17 promoter.
Culture medium was changed every 2 days.
The 4.3 Kb human IL-17 promoter containing the RORγ-specific CNS enhancer element was PCR amplified from human genomic DNA and cloned into a pGL3-TKLuc2Cp reporter plasmid.
The luciferase reporter plasmid and the RORγt overexpression plasmid were transfected into COS-7 cell line using 4 μL JetPEI™/μg of DNA. Briefly, 150 ng of DNA (ration 1/2 between RORE-Tk Luc2Cp and cDNA RORγt or the empty vector for the negative control) was served to transfect adherent COS-7 cells in a […] culture flask, in complete medium (see cos-7 cell line culture).
Cells were then detached (using trypsin) and washed by centrifugation at 300 g for 10 minutes. Cell pellet was resuspended in serum free/phenol red free DMEM and seeded in 384 well plates at a density of 10000 cells/well and then incubated for 4 h at 37° C.
Compounds were dissolved in 100% DMSO to obtain 10 mM stock solutions. For each compound, test concentrations were diluted in serum free/phenol red free DMEM using the Genesis Freedom 200™ (TECAN) and added to the cells to obtain a 0.3% DMSO final concentration (in a final volume of 40 μL per well).
The luciferase activity was then measured with 40 μL/well steady-Glo Luciferase assay system (Promega, Madison, Wis.) and after incubation at room temperature for 30 minutes. The luminescence was estimated using the Ultra384 reader (TECAN). Data were collected and analyzed using GraphPad Prism software (GraphPad Software V5.02, San Diego Calif. USA). IC50 in μM and E max in % were reported for each compound.

[3] = target: T2, RORγt ligand-binding domain (RORγt-LBD) (Homo sapiens, UniProt P51449); assay: Time-resolved FRET (TR-FRET) RORγt coactivator assay (RIP140 peptide displacement); format: biochemical; settings: ligand-dependent coactivator-RORγt binding
T2 construct: 20 nM recombinantly expressed RORγ-LBD fused to GST
T2 sequence (P51449 269-508 limits assumed): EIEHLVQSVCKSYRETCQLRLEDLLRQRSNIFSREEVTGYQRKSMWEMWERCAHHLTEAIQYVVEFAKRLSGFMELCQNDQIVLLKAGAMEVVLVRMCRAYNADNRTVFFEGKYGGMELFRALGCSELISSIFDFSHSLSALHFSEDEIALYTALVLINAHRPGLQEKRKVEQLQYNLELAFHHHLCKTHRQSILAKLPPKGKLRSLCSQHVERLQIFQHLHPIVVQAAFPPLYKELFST
From the text: Time-resolved FRET (TR-FRET) RORγt coactivator assay was used to identify RORγ modulator compounds with ligand-dependent coactivator displacement. The assay uses a d2-labeled anti-GST antibody, synthetic N-terminally biotinylated peptide which is derived from nuclear receptor coactivator protein RIP140, and a RORγt ligand-binding domain (RORγt-LBD) that is tagged with glutathione-S-transferase (GST). The influence of compounds on the RORγ-peptide interaction relies on the binding dependent energy transfer from a donor to an acceptor fluorophor attached to the binding partner of interest. […] For reduction of background from compound fluorescence, TR-FRET method makes use of generic fluorophore labels and time resolved detection.
The assays were done in a final volume of 20 μl in a 384 well plate in a CHAPS buffer (2 mM CHAPS; 1 mM DTT, 2 mM EDTA; 0.1% BSA), containing 20 nM recombinantly expressed RORγ-LBD fused to GST, 30 nM N-terminally biotinylated peptide, 1 nM streptavidin-terbium conjugate and 20 nM d2 labeled-anti-GST. Test compounds were diluted using 10 mM stock solution. The range of the final compound concentrations used in this test was from 0.3 nM to 30 μM (logarithmic scale). DMSO content of the samples was kept at 1%. The assay was equilibrated for 2 hours in the dark at room temperature in 384 well plates (Falcon). The signal was detected by an Ultra384 reader (TECAN). […] Compounds that promote coactivator displacement induce a concentration-dependent decrease in time-resolved fluorescent signal. Data were collected and analyzed using GraphPad Prism software (GraphPad Software V5.02, San Diego Calif. USA). IC50 in μM and E max in % were reported for each compound.

Row | Structure (SMILES) | IC50 (human RORγt [1]) [nM] | IC50 (human RORγt [2]) [nM] | IC50 [3] [nM]
1 | Cc1ccc(C(NC(=O)Cc2cc(N3CCOCC3)ccc2F)c2ccccc2)c(N2CCCCC2)c1 (stereo not drawn) [Cpd. 8, 2-[2-fluoro-5-(morpholin-4-yl)phenyl]-N-{[4-methyl-2-(piperidin-1-yl)phenyl](phenyl)methyl}acetamide] | – | 1000 to 10000 | 100 to 1000
2 | COc1ccc(CC(=O)NC(c2ccc(C)o2)c2ccc(C)cc2N2CCCCC2)cc1N1CCS(=O)(=O)CC1 (stereo not drawn) [Cpd. 30, 2-[3-(1,1-dioxo-1-thiomorpholin-4-yl)-4-methoxyphenyl]-N-{[4-methyl-2-(piperidin-1-yl)phenyl](5-methylfuran-2-yl)methyl}acetamide] | – | 100 to 1000 | 100 to 1000
3 | Cc1ccc(N2CCS(=O)(=O)CC2)cc1CC(=O)NC(c1ccccc1)c1ccccc1N1CCCCC1 (stereo not drawn) [Cpd. 2, 2-[5-(1,1-dioxo-1-thiomorpholin-4-yl)-2-methylphenyl]-N-{phenyl[2-(piperidin-1-yl)phenyl]methyl}acetamide] | – | 1000 to 10000 | 1000 to 10000
4 | Cc1ccc(C(NC(=O)Cc2ccc(N3CCS(=O)(=O)CC3)cn2)c2ccc(C)o2)c(N2CCCCC2)c1 (stereo not drawn) [Cpd. 47, 2-[5-(1,1-dioxo-1-thiomorpholin-4-yl)pyridin-2-yl]-N-{[4-methyl-2-(piperidin-1-yl)phenyl](5-methylfuran-2-yl)methyl}acetamide] | – | < 100 | < 1000
5 | Cc1ccc(C(NC(=O)Cc2cnc(N3CCOCC3)nc2)c2ccc(C)o2)c(N2CCCCC2)c1 (stereo not drawn) [Cpd. 26, N-{[4-methyl-2-(piperidin-1-yl)phenyl](5-methylfuran-2-yl)methyl}-2-[2-(morpholin-4-yl)pyrimidin-5-yl]acetamide] | – | 100 to 1000 | < 1000
6 | Cc1ccc(C(NC(=O)Cc2ncc(N3CCS(=O)(=O)CC3)cn2)c2ccc(C)o2)c(N2CCCCC2)c1 (stereo not drawn) [Cpd. 65, 2-[5-(1,1-dioxo-1-thiomorpholin-4-yl)pyrimidin-2-yl]-N-{[4-methyl-2-(piperidin-1-yl)phenyl](5-methylfuran-2-yl)methyl}acetamide] | – | < 100 | < 1000
7 | Cc1ccc(C(NC(=O)Cc2ccc(O)c(N3CCS(=O)(=O)CC3)c2)c2ccc(C)o2)c(C)c1 (stereo not drawn) [Cpd. 43, N-[(2,4-dimethylphenyl)(5-methylfuran-2-yl)methyl]-2-[3-(1,1-dioxo-1-thiomorpholin-4-yl)-4-hydroxyphenyl]acetamide] | – | 1000 to 10000 | < 1000
8 | Cc1ccc(C(NC(=O)Cc2ccc(N3CCS(=O)(=O)CC3)cc2)c2ccc(C)o2)c(C(F)(F)F)c1 (stereo not drawn) [Cpd. 24, 2-[4-(1,1-dioxo-1-thiomorpholin-4-yl)phenyl]-N-{[4-methyl-2-(trifluoromethyl)phenyl](5-methylfuran-2-yl)methyl}acetamide] | – | 1000 to 10000 | 100 to 1000

Continued, values first:

Row | IC50 (human RORγt [1]) [nM] | IC50 (human RORγt [2]) [nM] | IC50 [3] [nM] | Structure (SMILES)
9 | < 1000 | < 100 | – | Cc1ccc(C(NC(=O)C2(c3ncc(N4CCS(=O)(=O)CC4)cc3C)CC2)c2ccc(C)o2)c(C)c1 (stereo not drawn) [Cpd. 72, N-[(2,4-dimethylphenyl)(5-methylfuran-2-yl)methyl]-1-[5-(1,1-dioxo-1-thiomorpholin-4-yl)-3-methylpyridin-2-yl]cyclopropane-1-carboxamide]
10 | – | 100 to 1000 | 100 to 1000 | Cc1ccc(C(NC(=O)Cc2cnc(N3CCS(=O)(=O)CC3)nc2)c2ccc(C)o2)c(Br)c1 (stereo not drawn) [Cpd. 34, N-[(2-bromo-4-methylphenyl)(5-methylfuran-2-yl)methyl]-2-[2-(1,1-dioxo-1-thiomorpholin-4-yl)pyrimidin-5-yl]acetamide]
11 | – | 1000 to 10000 | 1000 to 10000 | Cc1ccc(C(NC(=O)Cc2cnc(N3CCS(=O)(=O)CC3)nc2C)c2ccc(C)o2)c(C)c1 (stereo not drawn) [Cpd. 42, N-[(2,4-dimethylphenyl)(5-methylfuran-2-yl)methyl]-2-[2-(1,1-dioxo-1-thiomorpholin-4-yl)-4-methylpyrimidin-5-yl]acetamide]
12 | – | 100 to 1000 | < 1000 | Cc1ccc(C(NC(=O)C2(c3cccc(N4CCS(=O)(=O)CC4)c3)CC2)c2ccc(C)o2)c(N2CCCCC2)c1 (stereo not drawn) [Cpd. 58, 1-[3-(1,1-dioxo-1-thiomorpholin-4-yl)phenyl]-N-{[4-methyl-2-(piperidin-1-yl)phenyl](5-methylfuran-2-yl)methyl}cyclopropane-1-carboxamide]
13 | 1000 to 10000 | 100 to 1000 | – | COc1ccc(C(NC(=O)C2(c3cnc(N4CCS(=O)(=O)CC4)nc3)CC2)c2ccc(C)o2)c(C)c1 (stereo not drawn) [Cpd. 57, 1-[2-(1,1-dioxo-1-thiomorpholin-4-yl)pyrimidin-5-yl]-N-[(4-methoxy-2-methylphenyl)(5-methylfuran-2-yl)methyl]cyclopropane-1-carboxamide]
14 | – | 1000 to 10000 | 100 to 1000 | Cc1ccc(C(NC(=O)Cc2cnc(N3CCS(=O)(=O)CC3)nc2)c2ccc(C)o2)c(C)c1 (stereo not drawn) [Cpd. 35, N-[(2,4-dimethylphenyl)(5-methylfuran-2-yl)methyl]-2-[2-(1,1-dioxo-1-thiomorpholin-4-yl)pyrimidin-5-yl]acetamide]
15 | – | 100 to 1000 | < 1000 | Cc1ccc(C(NC(=O)C2(c3ccc(N4CCS(=O)(=O)CC4)cc3)CCC2)c2ccc(C)o2)c(C)c1 (stereo not drawn) [Cpd. 41, N-[(2,4-dimethylphenyl)(5-methylfuran-2-yl)methyl]-1-[4-(1,1-dioxo-1-thiomorpholin-4-yl)phenyl]cyclobutane-1-carboxamide]
